Test results: patent US20100160255A1, “SPIRO-CYCLIC COMPOUND” (Takeda Pharmaceutical Company Limited, priority 2005, published 2010)
pIC50: −log10 of the molar value. Where two headings read alike, the source gives them in different places.

How the values were obtained:
human ACC1 = molecular target: T1, human ACC1 (Homo sapiens, UniProt Q13085); test: ACC1 inhibitory activity (malachite green absorbance assay, recombinant enzyme); assay type: biochemical
T1 construct: made in house; host or cells: SF-9 insect cells, recombinant baculovirus BAC-ACC1
Description: The ACC1 inhibitory activity of the compound of the present invention was evaluated by the following method.
(§1) Human ACC1 gene was cloned by PCR using human liver cDNA library (Clontech) as a template, and Primer 1 and Primer 2 shown below. Primer 1 and Primer 2 were prepared by adding recognition sequence of restriction enzymes SalI and NotI based on the information of the base sequence (Genbank Accession U19822) of human ACC1 gene.
(§2) PCR was performed using Pyrobest DNA polymerase (TAKARA BIO INC.). The obtained PCR product was cloned to pT7 Blue vector (Novagen) which was, after confirmation of the base sequence, digested with restriction enzymes SalI and NotI. The obtained DNA fragment was inserted into pFAST-BacHTc (Invitrogen) digested with restriction enzymes SalI and NotI to give expression plasmid ACC1/pFAST-BacHTc.
Using the expression plasmid and BAC-TO-BAC Baculovirus Expression System (Invitrogen), virus stock BAC-ACC1 of recombinant Baculovirus was prepared.
(§3) SF-9 cells (Invitrogen) were sown at 1×10^6 cells/mL to insect cell culture medium (1 L, Sf-900II SFM medium (Invitrogen) containing 10% fetal bovine serum (Trace), 50 mg/L gentamicin (Invitrogen) and 0.1% Pluronic F-68 (Invitrogen)), and shaking culture was performed using a 2 L volume Erlenmeyer flask at 27° C., 100 rpm.
After culturing for 24 hr, the recombinant Baculovirus BAC-ACC1 (10 mL) was added, and the mixture was further cultured for 3 days. The culture medium was centrifuged at 1000×g for 5 min to give virus-infected cells. The infected cells were washed with phosphate buffered saline (Invitrogen) and centrifuged under the same conditions, and the obtained cells were cryopreserved at −80° C.
The cryopreserved cells were thawed in ice, suspended in 25 mM HEPES buffer (100 mL, pH 7.5) containing 10% Glycerol, 0.13 M NaCl, 1 mM EDTA, 25 mM sodium β-glycerophosphate, 1 mM sodium orthovanadate, added with Complete Protease Inhibitor (Boehringer). The obtained suspension was homogenized 3 times with a Polytron homogenizer (Kinematica) at 20,000 rpm for 30 seconds. The obtained cell disrupt solution was clarified by centrifugation at 185700×g for 50 min and filtrated using a 0.45 μm filter. The filtrate was passed through a column packed with Ni-NTA Super Flow Gel (QIAGEN, 12 mL) at a flow rate of about 5 mL/min. The column was washed with buffer A (50 mM HEPES containing 0.3M NaCl, pH 7.5), further washed with buffer A containing 20 mM Imidazole, and eluted with buffer A containing 100 mM Imidazole. The eluate was concentrated with Vivaspin 20 (Vivascience) having a molecular weight cut off of 30 K. The obtained concentrate was dialyzed using Sephadex G-25 (Amersham Bioscience K.K., 358 mL) equilibrated with 50 mM HEPES (pH7.5) containing 10 mM MgCl2, 2 mM dithiothreitol, 10 mM tripotassium citrate and 0.3M NaCl. The dialysate was concentrated with Vivaspin 20 (Vivascience) having a molecular weight cut off of 30 K and the concentrate was filtered through a 0.22 μm filter to give ACC1. The obtained ACC1 was cryopreserved at −80° C.
ACC1 (0.93 mg/ml) obtained in (2) above was diluted to a concentration of 8 μg/ml with an enzyme reaction buffer (50 mM HEPES (pH7.5), 10 mM MgCl2, 10 mM tripotassium citrate, 2 mM dithiothreitol, 0.75 mg/ml fatty acid free BSA), and added to each well of a 384 well assay plate (Nunc 265196) by 10 μl. […]

human ACC2 = molecular target: T2, human ACC2 (Homo sapiens, UniProt O00763); test: ACC2 inhibitory activity (malachite green absorbance assay, recombinant ACC2(Nd)); assay type: biochemical
T2 construct: made in house; host or cells: SF-9 insect cells, recombinant baculovirus BAC-ACC2(Nd)
T2 sequence (O00763 117-2458 limits assumed): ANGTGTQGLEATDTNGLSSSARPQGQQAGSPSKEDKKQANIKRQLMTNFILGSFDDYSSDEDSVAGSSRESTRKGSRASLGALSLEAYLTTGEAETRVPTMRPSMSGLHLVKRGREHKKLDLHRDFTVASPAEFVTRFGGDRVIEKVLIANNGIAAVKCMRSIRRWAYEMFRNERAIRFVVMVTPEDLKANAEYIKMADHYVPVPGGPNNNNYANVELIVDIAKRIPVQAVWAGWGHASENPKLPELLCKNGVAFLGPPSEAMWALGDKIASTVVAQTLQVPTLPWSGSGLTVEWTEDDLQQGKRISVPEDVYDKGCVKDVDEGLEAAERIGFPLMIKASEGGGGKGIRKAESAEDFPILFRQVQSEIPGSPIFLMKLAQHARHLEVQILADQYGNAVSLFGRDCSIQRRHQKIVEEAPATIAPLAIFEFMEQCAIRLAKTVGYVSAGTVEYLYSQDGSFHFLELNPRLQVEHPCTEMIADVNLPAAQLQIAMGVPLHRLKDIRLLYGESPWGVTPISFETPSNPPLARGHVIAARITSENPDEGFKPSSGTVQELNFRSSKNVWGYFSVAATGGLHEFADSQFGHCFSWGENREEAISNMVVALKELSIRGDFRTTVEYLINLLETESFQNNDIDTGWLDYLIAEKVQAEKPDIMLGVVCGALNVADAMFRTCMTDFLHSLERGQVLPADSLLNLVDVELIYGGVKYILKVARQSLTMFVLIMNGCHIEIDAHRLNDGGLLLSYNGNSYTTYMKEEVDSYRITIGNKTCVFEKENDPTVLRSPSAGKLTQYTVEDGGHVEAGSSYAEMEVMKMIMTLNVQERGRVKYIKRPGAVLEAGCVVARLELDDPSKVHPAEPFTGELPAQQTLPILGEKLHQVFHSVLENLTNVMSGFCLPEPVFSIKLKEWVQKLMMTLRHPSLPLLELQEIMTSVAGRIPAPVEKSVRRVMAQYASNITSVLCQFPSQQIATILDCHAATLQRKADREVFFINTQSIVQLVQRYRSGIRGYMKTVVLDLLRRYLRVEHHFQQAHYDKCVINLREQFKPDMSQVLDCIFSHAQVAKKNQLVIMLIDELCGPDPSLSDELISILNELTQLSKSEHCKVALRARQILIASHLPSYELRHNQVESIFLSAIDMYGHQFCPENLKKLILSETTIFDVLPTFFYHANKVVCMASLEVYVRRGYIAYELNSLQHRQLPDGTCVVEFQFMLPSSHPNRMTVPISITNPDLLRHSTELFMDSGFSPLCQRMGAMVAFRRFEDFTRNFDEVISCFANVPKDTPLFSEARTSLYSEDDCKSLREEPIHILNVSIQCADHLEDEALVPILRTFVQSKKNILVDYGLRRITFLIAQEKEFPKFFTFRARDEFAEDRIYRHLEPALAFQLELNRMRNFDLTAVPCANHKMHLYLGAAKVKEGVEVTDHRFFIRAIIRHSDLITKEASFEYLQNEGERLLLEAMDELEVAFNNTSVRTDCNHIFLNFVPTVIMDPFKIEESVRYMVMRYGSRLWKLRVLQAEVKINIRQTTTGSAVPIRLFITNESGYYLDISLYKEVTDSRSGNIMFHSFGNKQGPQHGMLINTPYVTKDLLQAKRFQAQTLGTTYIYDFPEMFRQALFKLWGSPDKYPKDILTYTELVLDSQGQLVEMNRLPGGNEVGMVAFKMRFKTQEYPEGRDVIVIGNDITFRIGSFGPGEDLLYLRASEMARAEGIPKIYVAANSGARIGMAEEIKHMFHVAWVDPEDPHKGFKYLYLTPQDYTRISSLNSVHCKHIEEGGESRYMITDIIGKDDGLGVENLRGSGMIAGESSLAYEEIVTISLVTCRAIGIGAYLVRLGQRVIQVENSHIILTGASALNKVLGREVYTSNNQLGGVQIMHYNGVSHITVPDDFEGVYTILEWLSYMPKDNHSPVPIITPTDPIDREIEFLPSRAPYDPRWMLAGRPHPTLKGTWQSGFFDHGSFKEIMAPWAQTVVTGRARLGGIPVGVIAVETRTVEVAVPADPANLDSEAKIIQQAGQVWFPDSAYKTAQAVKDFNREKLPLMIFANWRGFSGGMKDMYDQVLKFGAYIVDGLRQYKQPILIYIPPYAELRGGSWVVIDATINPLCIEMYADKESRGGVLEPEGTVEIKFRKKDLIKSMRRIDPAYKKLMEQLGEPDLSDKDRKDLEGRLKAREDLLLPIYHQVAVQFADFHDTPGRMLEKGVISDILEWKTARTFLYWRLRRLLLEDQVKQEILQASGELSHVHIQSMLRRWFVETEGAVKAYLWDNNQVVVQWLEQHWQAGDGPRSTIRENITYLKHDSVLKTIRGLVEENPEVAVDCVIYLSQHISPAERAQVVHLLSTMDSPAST
Description: The ACC2 inhibitory activity of the compound of the present invention was evaluated by the following method.
as §1, with “ACC2” for “ACC1”, “skeletal muscle” for “liver”, “XbaI” for “NotI”, “U89344)” for “U19822)”
as §2, with “XbaI.” for “NotI.”, “pFAST-BacHTa” for “pFAST-BacHTc”, “XbaI” for “NotI”, “ACC2/pFAST-BacHTa.” for “ACC1/pFAST-BacHTc.”
A plasmid for expression of ACC2 free of mitochondrial targeting sequence was prepared by PCR using the expression plasmid as a template, and Primer 3 and Primer 4 shown below.
as §2, with “AflII.” for “NotI.”, “pFAST-BacHTa” for “pFAST-BacHTc”, “AflII” for “NotI”, “ACC2mito7/pFAST-BacHTa.” for “ACC1/pFAST-BacHTc.”
Using the expression plasmid and BAC-TO-BAC Baculovirus Expression System (Invitrogen), virus stock BAC-ACC2 of recombinant Baculovirus (N terminal deletion (hereinafter Nd)) was prepared.
as §3, with “0.5×10^6” for “1×10^6”, “(2” for “(1”, “Wave Bioreactor (Wave) under the conditions of” for “2 L volume Erlenmeyer flask at”, “20 rpm, rocking angle of 6° and oxygen concentration of 30%.” for “100 rpm.”
On day 4 of the culture, 3 L of an insect cell culture medium was added, the rocking angle was set to 8°, and the cells were further cultured. On day 5 of the culture, the recombinant Baculovirus BAC-ACC2(Nd) (100 mL) was added, 5 L of the insect cell culture medium was further added, the rocking angle was set to 11°, and the cells were cultured for 3 days. The culture medium was centrifuged at 1000×g for 10 min to give virus-infected cells. The infected cells were washed with phosphate buffered saline (Invitrogen) and centrifuged under the same conditions, and the obtained cells were cryopreserved at −80° C.
The cryopreserved cells were thawed in ice, suspended in 25 mM HEPES buffer (900 mL, pH 7.5) containing 10% Glycerol, 0.13 M NaCl, 1 mM EDTA, 25 mM sodium β-glycerophosphate, 1 mM sodium orthovanadate, added with Complete Protease Inhibitor (Boehringer). The obtained suspension was homogenized 3 times with a Polytron homogenizer (Kinematica) at 20,000 rpm for 30 seconds. The obtained cell disrupt solution was clarified by centrifugation at 31000×g for 60 min and filtrated using a 0.45 μm filter. The filtrate was passed through a column packed with Ni-NTA Super Flow Gel (QIAGEN, 60 mL) at a flow rate of about 5 mL/min. The column was washed with buffer A (50 mM HEPES containing 0.3M NaCl, pH 7.5), further washed with buffer A containing 20 mM Imidazole, and eluted with buffer A containing 100 mM Imidazole. The eluate was concentrated with Vivaspin 20 (Vivascience) having a molecular weight cut off of 30 K. The obtained concentrate was dialyzed against 50 mM HEPES (pH7.5) containing 10 mM MgCl2, 2 mM dithiothreitol, 10 mM tripotassium citrate and 0.3M NaCl. The dialysate was filtered through a 0.22 μm filter to give ACC2(Nd). The obtained ACC2(Nd) was cryopreserved at −80° C. […]

[1] = Table 8, recombinant human ACC1, 30° C., absorbance 620 nm, read-out: IC50 (ACC1 inhibitory activity)
[2] = Table 9, recombinant human ACC2(Nd), N terminal deletion, 30° C., absorbance 620 nm, read-out: IC50 (ACC2 inhibitory activity)
[3] = Experimental Example 3, same manner as Experimental Example 1, read-out: IC50 values (ACC1 inhibitory activity)

## CC1(C)CC2(CN(C3CCN(C(=O)c4c5ccccc5cc5ccccc45)CC3)CCN2)C(=O)O1 (stereo not shown) [Example 153, 9-[1-(9-anthrylcarbonyl)piperidin-4-yl]-3,3-dimethyl-2-oxa-6,9-diazaspiro[4.5]decan-1-one]
Human ACC1; [1]
  pIC50: 5.80
Human ACC2; [2]
  pIC50: 7.12

## CCNC(=O)Nc1sc2ccccc2c1C(=O)N1CCC(N2CCCC3(C2)N=C(C)N(CC)C3=O)CC1 (racemic) [Example 233, 1-ethyl-3-(3-{[4-(3-ethyl-2-methyl-4-oxo-1,3,7-triazaspiro[4.5]dec-1-en-7-yl)piperidin-1-yl]carbonyl}-1-benzothien-2-yl)urea]
Human ACC1; [1]
  pIC50: 6.96
Human ACC2; [2]
  pIC50: 7.77

## CCNC(=O)Nc1sc2ccccc2c1C(=O)N1CCC(N2CCCC3(C2)OC(=O)N(CC)C3=O)CC1 (racemic) [Example 228, N-ethyl-N′-(3-{[4-(3-ethyl-2,4-dioxo-1-oxa-3,7-diazaspiro[4.5]dec-7-yl)piperidin-1-yl]carbonyl}-1-benzothien-2-yl)urea]
Human ACC1; [1]
  pIC50: 6.72
Human ACC2; [2]
  pIC50: 7.39

## CCNC(=O)Nc1sc2ccccc2c1C(=O)N1CCC(N2CCCC3(CC(=O)N(C)C3=O)C2)CC1 (stereo not shown) [Example 380, N-ethyl-N′-(3-{[4-(2-methyl-1,3-dioxo-2,7-diazaspiro[4.5]dec-7-yl)piperidin-1-yl]carbonyl}-1-benzothien-2-yl)urea]
Human ACC1; [1]
  pIC50: 6.68
Human ACC2; [2]
  pIC50: 7.35

## CCNC(=O)Nc1sc2c(c1C(=O)N1CCC(N3CCCC4(C3)OC(=O)N(C(C)(C)C)C4=O)CC1)CCCC2=O (stereo not shown) [Example 420, N-(3-{[4-(3-tert-butyl-2,4-dioxo-1-oxa-3,7-diazaspiro[4.5]dec-7-yl)piperidin-1-yl]carbonyl}-7-oxo-4,5,6,7-tetrahydro-1-benzothien-2-yl)-N′-ethylurea]
Human ACC1; [3]
  pIC50: ≥ 7.00
Human ACC2; Experimental Example 4, same manner as Experimental Example 2, read-out: IC50 values (ACC2 inhibitory activity)
  pIC50: ≥ 8.00

## CNC(=O)Nc1sc2ccccc2c1C(=O)N1CCC(N2CCCC3(CCN(C(C)C)C3=O)C2)CC1 (stereo not shown) [Example 360, N-(3-{[4-(2-isopropyl-1-oxo-2,7-diazaspiro[4.5]dec-7-yl)piperidin-1-yl]carbonyl}-1-benzothien-2-yl)-N′-methylurea]
Human ACC1; [1]
  pIC50: 6.96
Human ACC2; [2]
  pIC50: 7.66

## CCN1CCC2(CCCN(C3CCN(C(=O)c4c(NC(=O)NC)sc5ccccc45)CC3)C2)C1=O (stereo not shown) [Example 339, N-(3-{[4-(2-ethyl-1-oxo-2,7-diazaspiro[4.5]dec-7-yl)piperidin-1-yl]carbonyl}-1-benzothien-2-yl)-N′-methylurea]
Human ACC1; [1]
  pIC50: 6.52
Human ACC2; [2]
  pIC50: 7.35

## CCN1C(=O)CC2(CCCN(C3CCN(C(=O)c4c(NC(N)=O)sc5ccccc45)CC3)C2)C1=O (racemic) [Example 240, 1-(3-{[4-(2-ethyl-1,3-dioxo-2,7-diazaspiro[4.5]dec-7-yl)piperidin-1-yl]carbonyl)-1-benzothien-2-yl)urea]
Human ACC1; [1]
  pIC50: 6.46
Human ACC2; [2]
  pIC50: 7.64

## CCNC(=O)Nc1sc2ccccc2c1C(=O)N1CCC(N2CCCC3(C2)OC(=O)N(CC)C3=O)CC1 (stereo not shown) [Example 327, N-ethyl-N′-(3-{[4-(3-ethyl-2,4-dioxo-1-oxa-3,7-diazaspiro[4.5]dec-7-yl)piperidin-1-yl]carbonyl}-1-benzothien-2-yl)urea]
Human ACC1; [1]
  pIC50: 6.70
Human ACC2; [2]
  pIC50: 7.72

## CCNC(=O)Nc1sc(-c2ccccn2)cc1C(=O)N1CCC(N2CCCC3(C2)OC(=O)N(CC)C3=O)CC1 (stereo not shown) [Example 245, 1-ethyl-3-(3-{[4-(3-ethyl-2,4-dioxo-1-oxa-3,7-diazaspiro[4.5]dec-7-yl)piperidin-1-yl]carbonyl}-5-(pyridin-2-yl)-2-thienyl)urea]
Human ACC1; [1]
  pIC50: 6.01
Human ACC2; [2]
  pIC50: 7.34

## CCNC(=O)Nc1sc2ccccc2c1C(=O)N1CCC(N2CCCC3(CCN(CC)C3=O)C2)CC1 (stereo not shown) [Example 400, N-ethyl-N′-(3-{[4-(2-ethyl-1-oxo-2,7-diazaspiro[4.5]dec-7-yl)piperidin-1-yl]carbonyl}-1-benzothien-2-yl)urea]
Human ACC1; [3]
  pIC50: ≥ 7.00
Human ACC1; [1]
  pIC50: 7.01
Human ACC2; [2]
  pIC50: 7.89

## CCNC(=O)Nc1sc2ccccc2c1C(=O)N1CCC(N2CCCC3(CCN(CC)C3=O)C2)CC1 (racemic) [Example 321, N-ethyl-N′-(3-{[4-(2-ethyl-1-oxo-2,7-diazaspiro[4.5]dec-7-yl)piperidin-1-yl]carbonyl}-1-benzothien-2-yl)urea]
Human ACC1; [1]
  pIC50: 6.44
Human ACC2; [2]
  pIC50: 7.47
